Like-named read-outs stand apart in the source and are kept apart here.
Assays:
[1] = system: mouse odorant receptors (ORs); assay: CRE-luciferase assay of odorant receptor activation (Dual-Glo, Hana3A cells, RTP1S), dose-response EC50; format: cell-based; details: for log EC50 (Table 4 value), MOR41-1: receptor MOR41-1; for log EC50 (Table 4 value), MOR273-1: receptor MOR273-1
Description: (§1) Cloning mouse and human ORs. […] OR open reading frames were amplified from genomic DNA using proofreading KOD DNA polymerase (Toyobo/Novagen) and subcloned into pCI expression vectors (Promega) containing the first 20 residues of human rhodopsin (Rho tag). The sequences of the cloned receptors were verified by sequencing (3100 Genetic Analyzer, ABI Biosystems). Immunocytochemistry and FACS analysis. […] For FACS analysis, phycoerythrin (PE)-conjugated anti-mouse IgG (Jackson Immunologicals) was used. In order to monitor the transfection efficiency, Green Fluorescent Protein (GFP) was co-transfected with the OR. The intensity of receptor cell surface expression was calculated as the ratio of PE and GFP expression. 7-aminoactinomycin D (Calbiochem) was added before flow cytometry to mark dead cells which were excluded from the analysis. The gate and mean of PE positive cells was normalized by GFP values. Luciferase assay. […] Odorant receptor activation leads to an increase in intracellular cAMP; CRE-luciferase (Stratagene) was used to measure this change. […] Hana3A cells were plated on poly-D-lysine-coated 96-well plates (BioCoat; Becton Dickinson). […] For each 96-well plate transfected, 1 μg of CRE-Luc, 1 μg of pRL-SV40, 5 μg of odorant receptor plasmid, and 1 μg of RTP1S was used. Approximately 24 hours post transfection, the medium was replaced with CD293 chemically defined medium (Gibco) and the plate was incubed for 30 min at 37° C. The medium was then replaced with 25 μL of odorant solution diluted in CD293 and the plate was incubated for 4 hrs at 37° C. and 5% CO2. The manufacturer's protocols for measuring luciferase and Renilla luciferase activities was followed. […] All luminescence values were divided by the Renilla Luciferase activity to control for transfection efficiency in a given well. Normalized luciferase activity was calculated using the formula (LN−Lmin)/(Lmax−Lmin), where LN is the luminescence of firefly luciferase in response to the odorant, Lmin is the minimum luciferase value on a plate or set of plates, and Lmax is the maximum luciferase value on a plate or set of plates. The data was analyzed using Microsoft Excel and GraphPad Prism 4. Screening procedure. The entire OR library was stimulated with eight separate odorant mixtures formed from 93 odorants (FIG. 12). […] A comparison between the 93 individual odorants at a 100 μM dose and a no-odor control was performed for all 290 […]. Each comparison was performed in triplicate; statistical significance was assessed by t-test (uncorrected for multiple comparisons). […] A single odorant was used on each plate to avoid cross-contamination, and each OR odorant dose was tested at least three times. The data was fit to a sigmoidal curve. […] Physicochemical descriptors. […] Receptor descriptors. […] Correlations between descriptors and responses. […] All odorants for which there were fewer than 3 responsive receptors were eliminated. For all remaining odorant pairs the Pearson correlation between EC50 vectors and the Euclidean distance between descriptor vectors was calculated. The Pearson correlation between these two sets of distances was then measured. Optimizing descriptors. […] In this method one begins with an empty set of descriptors. Each descriptor is combined with the previous set of descriptors and correlation values are computed for all of these candidate sets of descriptors. To reduce overfitting, the data is randomly divided into ten subsets and correlation values are computed for each leave-one out subset. The final correlation coefficient for each set of descriptors is the average of the correlation coefficients for each subset. The set with the best correlation coefficient then becomes the new set of descriptors and the process is repeated until the correlation coefficient increases by less than 0.004 in three consecutive iterations.

[2] = biological target: T1, human odorant receptors (ORs) (Homo sapiens, UniProt Q9Y3N9); assay: as above; format: cell-based; details: receptor OR2W1
T1 construct: OR open reading frames were amplified from genomic DNA; expressed in transfected cells; host or cells: Hana3A cells, co-transfected with RTP1S, CRE-luciferase and pRL-SV40
T1 sequence (Q9Y3N9 1-320): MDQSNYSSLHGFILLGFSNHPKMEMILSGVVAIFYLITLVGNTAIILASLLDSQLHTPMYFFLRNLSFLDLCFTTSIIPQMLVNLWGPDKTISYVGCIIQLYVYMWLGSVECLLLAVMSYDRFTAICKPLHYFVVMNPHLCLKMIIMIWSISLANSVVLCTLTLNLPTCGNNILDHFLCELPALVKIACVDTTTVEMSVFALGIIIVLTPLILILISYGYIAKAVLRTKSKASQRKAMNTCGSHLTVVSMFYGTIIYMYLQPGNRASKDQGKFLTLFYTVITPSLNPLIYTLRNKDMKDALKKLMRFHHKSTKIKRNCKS
Description: as §1, with “For all remaining odorant pairs the Pearson correlation between EC50 vectors and the Euclidean distance between descriptor vectors was calculated.” left out, “subset.” for “subset. The set with the best correlation coefficient then becomes the new set of descriptors and the process is repeated until the correlation coefficient increases by less than 0.004 in three consecutive iterations.”
The entire OR library was stimulated with one of 8 odorant mixtures drawn from 93 odorants chosen to represent diverse functional groups, sizes, and structures (Table 3). Each mixture was applied at five different concentrations. […] The 93 odorants were then applied individually at 100 μM to the 290 mixture-responsive ORs.

[3] = read-out: log EC50 of odorant at OR2W1 (0 = no response) (converted)

CCCCC(=O)O [Pentanoic acid]
log EC50 of odorant at MOR1-1 (0 = no response) ([1]; receptor MOR1-1): −4.813

O=c1cc(O)c2ccccc2o1 [4-Hydroxycoumarin]
log EC50 (Table 4 value), MOR41-1 [1]: −4.344

CCCCCCCC=O [Octanal]
EC50 [2, 3]: 43.6 µM

c1ccccc1 [Benzene]
log EC50 (Table 4 value), MOR271-1 ([1]; receptor MOR271-1): −4.005

CCCCCCCCC=O [Nonanal]
EC50 [2, 3]: 252 µM
log EC50 of odorant at MOR30-1 (0 = no response) ([1]; receptor MOR30-1): −3.914
log EC50 of odorant at MOR33-1 (0 = no response) ([1]; receptor MOR33-1): −3.234
log EC50 of odorant at MOR37-1 (0 = no response) ([1]; receptor MOR37-1): −3.295
log EC50 of odorant at MOR40-1 (0 = no response) ([1]; receptor MOR40-1): −3.194

CCCCCCOC(C)=O [Hexyl acetate]
EC50 [2, 3]: 13.7 µM

O=C1CCCCC1 [Cyclohexanone]
log EC50 (Table 4 value), MOR41-1 [1]: −3.456
log EC50 (Table 4 value), MOR136-1 ([1]; receptor MOR136-1): −3.065
log EC50 (Table 4 value), MOR139-1 ([1]; receptor MOR139-1): −3.138
log EC50 (Table 4 value), MOR185-1 ([1]; receptor MOR185-1): −3.594
log EC50 (Table 4 value), MOR251-1 ([1]; receptor MOR251-1): −3.193
log EC50 (Table 4 value), MOR253-1 ([1]; receptor MOR253-1): −3.219
log EC50 (Table 4 value), MOR258-1 ([1]; receptor MOR258-1): −3.824
log EC50 (Table 4 value), MOR258-17 ([1]; receptor MOR258-17): −4.1
log EC50 (Table 4 value), MOR271-1 ([1]; receptor MOR271-1): −3.463
log EC50 (Table 4 value), MOR272-1 ([1]; receptor MOR272-1): −3.254
log EC50 (Table 4 value), MOR273-1 [1]: −3.208
log EC50 (Table 4 value), MOR277-1 ([1]; receptor MOR277-1): −3.568

CCCCC(C)=O [2-Hexanone]
EC50 ([2]; 0 = no response, read-out: log EC50, OR2W1 (converted)): 73.3 µM
log EC50, MOR271-1 ([1]; receptor MOR271-1, 0 = no response): −4.936
log EC50, MOR272-1 ([1]; receptor MOR272-1, 0 = no response): −4.251

CCCCCCCCCC=O [Daconal]
log EC50 (Table 4 value), MOR30-1 ([1]; receptor MOR30-1): −4.033
log EC50 (Table 4 value), MOR37-1 ([1]; receptor MOR37-1): −3.477

COc1cc(C(=O)O)ccc1O [Vanillic acid]
log EC50 of odorant at MOR9-1 (0 = no response) ([1]; receptor MOR9-1): −6.334
log EC50 of odorant at MOR15-1 (0 = no response) ([1]; receptor MOR15-1): −3.587

CCOC(=O)C(C)C [Ethyl isobutyrate]
log EC50 (Table 4 value), MOR271-1 ([1]; receptor MOR271-1): −4.077
log EC50 (Table 4 value), MOR272-1 ([1]; receptor MOR272-1): −5.25
log EC50 (Table 4 value), MOR273-1 [1]: −5.761

Source: patent US20100248390A1, “COMPOSITIONS AND METHODS FOR IDENTIFYING LIGANDS OF ODORANT RECEPTORS” (DUKE UNIVERSITY, priority 2009, published 2010)
